Test results: ChEMBL document CHEMBL2384902, “Synthesis and ionophoric activities of functionalized bis(choloyl) conjugates with a rigid core” (Bioorg Med Chem Lett, 2013); call rule not given here

Assays:
[1] = Ratio of k2 to K for ionophoric activity across egg-yolk L-alpha-phosphatidylcholine-based liposomal membranes (unknown origin)
[2] = Ionophoric activity across egg-yolk L-alpha-phosphatidylcholine-based liposomal membranes (unknown origin) assessed as induction of pH discharge at 0.5 to 3 mol % at internal pH 7 and external aqueous phase pH 8 by pyranine dye-based method; format: physicochemical; details: artificial membrane
[3] = Ionophoric activity across egg-yolk L-alpha-phosphatidylcholine-based liposomal membranes (unknown origin) assessed as change in fluorescence intensity at 3 mol % by pyranine dye-based method in presence of chloride ions in internal and sulfate ions in external vesicles; format: physicochemical; details: artificial membrane
[4] = Ionophoric activity across egg-yolk L-alpha-phosphatidylcholine-based liposomal membranes (unknown origin) assessed as induction of pH discharge at internal pH 7 and external aqueous phase pH 8 by pyranine dye-based method; format: physicochemical; details: artificial membrane

Activity [2] | Activity [3] | K [4] [×10⁻² /min] | SMILES | Ratio (10'-5/min.mol%'-4) [1] | Ratio (10'-4/min.mol%'-4) [1]
Active |  |  | C[C@H](CCC(=O)NCc1ccc(CNC(=O)CC[C@@H](C)[C@H]2CC[C@H]3[C@@H]4[C@H](O)C[C@@H]5C[C@H](O)CC[C@]5(C)[C@H]4C[C@H](O)[C@]23C)cc1)[C@H]1CC[C@H]2[C@@H]3[C@H](O)C[C@@H]4C[C@H](O)CC[C@]4(C)[C@H]3C[C@H](O)[C@]12C | 9 | 
Active | Not Active | 1.81 | C[C@H](CCC(=O)NC(CCCCN)C(=O)Nc1ccc(NC(=O)C(CCCCN)NC(=O)CC[C@@H](C)[C@H]2CC[C@H]3[C@@H]4[C@H](O)C[C@@H]5C[C@H](O)CC[C@]5(C)[C@H]4C[C@H](O)[C@]23C)cc1)[C@H]1CC[C@H]2[C@@H]3[C@H](O)C[C@@H]4C[C@H](O)CC[C@]4(C)[C@H]3C[C@H](O)[C@]12C (some centres not stated) |  | 5.5
Active | Not Active | 1.81 | C[C@H](CCC(=O)NC(CCCCN)C(=O)NCc1ccc(CNC(=O)C(CCCCN)NC(=O)CC[C@@H](C)[C@H]2CC[C@H]3[C@@H]4[C@H](O)C[C@@H]5C[C@H](O)CC[C@]5(C)[C@H]4C[C@H](O)[C@]23C)cc1)[C@H]1CC[C@H]2[C@@H]3[C@H](O)C[C@@H]4C[C@H](O)CC[C@]4(C)[C@H]3C[C@H](O)[C@]12C (some centres not stated) |  | 5.2
Active | Not Active |  | CC(=O)NCCCCC(NC(=O)CC[C@@H](C)[C@H]1CC[C@H]2[C@@H]3[C@H](O)C[C@@H]4C[C@H](O)CC[C@]4(C)[C@H]3C[C@H](O)[C@]12C)C(=O)NCc1ccc(CNC(=O)C(CCCCNC(C)=O)NC(=O)CC[C@@H](C)[C@H]2CC[C@H]3[C@@H]4[C@H](O)C[C@@H]5C[C@H](O)CC[C@]5(C)[C@H]4C[C@H](O)[C@]23C)cc1 (some centres not stated) |  | 
